# Test results published in patent US5049637A, “1,2,3,4,10,14b-hexahydrodibenzo[c,f]pyrazino-[1,2-a]azepino derivatives and 10-aza, 10-oxa and 10-thia analogues” (Monash University, priority 1987, dated 1991).
# Where a name gives a salt, the structure may show the parent alone.
# What was measured:
# [1] = test system: central nervous system (morphine induced catalepsy); experiment: Morphine induced catalepsy in the rat; format: in vivo; conditions: for Action in morphine induced catalepsy test: rat, mianserin in low doses
# Description: (§1) Thus doses of 1 mg/kg given intraperitoneally attenuated the facilitation of spinal reflex activity caused by p-chloroamphetamine, and also the facilitation of spinal reflexes induced by fenfluramine in spinal and decerebrate rats. […] The drug in doses of 10 and 20 mg/kg intraperitoneally and in doses of 20 mg/kg by mouth attenuated morphine-induced catalepsy. We conclude therefore that this drug is an orally active drug with central actions, particularly affecting serotonergic mechanisms, but has no effect in vitro (Table 1). […] Thus it was found after intravenous doses of 0.03 mg/kg to reduce histamine and 5-hydroxytryptamine bronchoconstriction in the guinea pig.
# [2] = test system: isolated guinea pig ileum (carbachol-induced contractions); experiment: Block of carbachol-induced contraction of the isolated guinea-pig ileum; conditions: block of contractions of isolated guinea pig ileum induced by carbachol
# Description: (§2) Compounds according to formula I were tested for their ability to block contractions of the isolated guinea pig ileum induced by KCl, carbachol, or histamine at a concentration of 10^-7 M. Ileum preparations were prepared according to standard methodology. The concentrations shown are the minimum required to show activity.
# [3] = test system: depressor effects of histamine; experiment: Effects of histamine in cats; format: in vivo, cat; conditions: intravenous
# Description: (§3) The compound of Example 2 was found in low concentrations to inhibit contractions of the guinea-pig isolated ileum and rat isolated stomach strip caused by histamine and 5-hydroxytryptamine respectively. […] Concomitantly, the depressor effects of histamine were blocked, as were the pressor effects of 5-hydroxytryptamine for over 30 minutes. The pressor effects of 5-hydroxytryptamine in anaesthetised and pithed rats were inhibited by intravenous doses of 0.3-1.0 mg/kg body weight. Slightly higher doses reduced the bradycardia and the depressor response (the Bezold-Jarisch reflex mediated by 5-HT3 receptors) to 5-hydroxytryptamine in anaesthetised rats. The drug inhibited oedema in the rat paw caused by intraplantar 5-hydroxytryptamine. […] In mice it inhibited diarrhoea caused by L-5-hydroxytryptophan. In guinea pigs, intravenous doses of 0.03 mg/kg and above reduced the bronchoconstrictor effects of histamine and 5-hydroxytryptamine.
# (§4) In cats, the effects of the ganglion stimulant McNeil -A-343 and histamine were reduced. Following intravenous injection into guinea-pigs, […] reduced histamine and 5-hydroxytryptamine induced broncho-constriction. Concentrations of 1 μg/ml or greater relaxed the isolated rat uterus in vitro.
# (§5) The compound of Example 4 when injected into rats at intravenous doses of 0.3 mg/kg or greater reduced the pressor effects of 5-hydroxytryptamine and also the depressor effects of histamine. In cats, the effect of histamine was reduced after these doses also.
# conscious cats = experiment: Behavioural changes and acute toxicity in the cat; format: in vivo
# [4] = test system: 5-HT3 receptors (Bezold-Jarisch reflex); experiment: Bradycardia and depressor response (Bezold-Jarisch reflex) to 5-hydroxytryptamine in anaesthetised rats; format: in vivo, rat; conditions: doses slightly higher than 0.3-1.0 mg/kg i.v.
# Description: as §3
# [5] = test system: pressor effects of 5-hydroxytryptamine; experiment: Pressor effects of 5-hydroxytryptamine in rats; format: in vivo, rat
# Description: as §3, §4, §5
# [6] = test system: rat paw oedema caused by 5-hydroxytryptamine; experiment: Oedema in the rat paw caused by intraplantar 5-hydroxytryptamine; format: in vivo
# Description: as §3
# [7] = test system: pressor effects of 5-hydroxytryptamine; experiment: Pressor effects of 5-hydroxytryptamine in cats; format: in vivo, cat; conditions: intravenous 0.1 mg/kg or greater
# Description: as §3
# [8] = test system: central nervous system (L-5-hydroxytryptophan-induced head twitch); experiment: L-5-hydroxytryptophan-induced head twitch in the mouse; format: in vivo; conditions: mianserin in low doses
# [9] = test system: depressor effects of histamine; experiment: Depressor effects of histamine in rats; format: in vivo, rat; conditions: intravenous 0.1 mg/kg or greater
# Description: as §3, §5
# [10] = test system: diarrhoea caused by L-5-hydroxytryptophan; experiment: Diarrhoea caused by L-5-hydroxytryptophan in mice; format: in vivo, mouse
# Description: as §3
# [11] = Penetration into the central nervous system; format: in vivo; conditions: for Ability to penetrate into the CNS: in vivo
# [12] = test system: arterial blood pressure and heart rate; experiment: Arterial blood pressure, heart rate and pressor responses to noradrenaline, sympathetic nerve stimulation and tyramine after intravenous injection into cats; format: in vivo, cat
# [13] = test system: rat isolated stomach strip (5-hydroxytryptamine-induced contractions); experiment: Contractions of rat isolated stomach strip caused by 5-hydroxytryptamine
# Description: as §3
# [14] = test system: bronchoconstrictor effects of histamine and 5-hydroxytryptamine; experiment: Histamine and 5-hydroxytryptamine induced bronchoconstriction in guinea pigs; format: in vivo, guinea pig; conditions: Cavia porcellus, intravenous, read-out: Intravenous dose reducing histamine and 5-hydroxytryptamine bronchoconstriction
# Description: as §3, §4, §5, §1
# [15] = test system: central nervous system (spinal flexor reflex); experiment: Spinal flexor reflex in the rat; format: in vivo; conditions: mianserin in low doses
# [16] = test system: arterial blood pressure and heart rate; experiment: Arterial blood pressure, heart rate and pressor responses to noradrenaline, sympathetic nerve stimulation and tyramine after intravenous injection into rats; format: in vivo, rat; conditions: for minimal effective dose: intravenous
# [17] = test system: isolated guinea pig ileum (histamine-induced contractions); experiment: Block of histamine-induced contraction of the isolated guinea-pig ileum; conditions: for minimal effective concentration: Cavia porcellus, isolated guinea pig ileum, histamine 10^-7 M, read-out: Effect on Histamine: minimum concentration required to show activity; for Effect on Histamine: block of contractions of isolated guinea pig ileum induced by histamine at 10^-7 M
# Description: as §3, §2
# isolated rat uterus = experiment: Isolated rat uterus in vitro; conditions: Rattus norvegicus, read-out: Concentration relaxing the isolated rat uterus
# [18] = test system: effects of the ganglion stimulant McNeil -A-343; experiment: Effects of the ganglion stimulant McNeil-A-343 in cats; format: in vivo, cat
# Description: as §4
# [19] = test system: isolated guinea pig ileum (KCl-induced contractions); experiment: Block of KCl-induced contraction of the isolated guinea-pig ileum; conditions: block of contractions of isolated guinea pig ileum induced by KCl
# Description: as §2
# [20] = test system: spinal reflex activity (serotonergic mechanisms); experiment: Facilitation of spinal reflexes by p-chloroamphetamine, fenfluramine or clonidine in spinal and decerebrate rats; format: in vivo, rat
# Description: as §1
# [21] = test system: effects of histamine and 5-hydroxytryptamine on blood pressure and heart rate; experiment: Effects of histamine and 5-hydroxytryptamine on blood pressure and heart rate in the chloral-anaesthetized rat; format: in vivo
# [22] = rats, intravenous 0.1 mg/kg or greater
# [23] = intravenous 0.1 mg/kg or greater
smiles,measurement,setting,value
"N=C(N)N1CCN2c3ccccc3Cc3ccccc3C2C1 (centres unmarked) [Example 2, 2-Carboxamidino-1,2,3,4,10,14b-hexahydrodibenzo [c,f]pyrazino[1,2-a]azepineHydrochloride]",Action in morphine induced catalepsy test,[1],failed to demonstrate any inhibitory or other actions
same,Effect on Carbachol,[2],- (no effect)
same,Effects of histamine (depressor) in cats,[3],blocked
same,Action on the central nervous system: behavioural changes in the cat,conscious cats; cat,failed to demonstrate any inhibitory or other actions
same,Overt behavioural changes or acute toxicity,"conscious cats; conscious cats, relatively large subcutaneous doses",No overt behavioural changes or acute toxicity
same,Bradycardia and depressor response (Bezold-Jarisch reflex) to 5-hydroxytryptamine,[4],reduced
same,Duration of block of the pressor effects of 5-hydroxytryptamine,[5]; [22],over 30 minutes
same,Oedema in the rat paw caused by intraplantar 5-hydroxytryptamine,[6]; oral and subcutaneous,inhibited
same,Oral absorption indicated by ratio of oral to subcutaneous dose,[6]; rat paw oedema,relatively good oral absorption
same,Duration of block of the pressor effects of 5-hydroxytryptamine,[7],over 30 minutes
same,Action in L-5-hydroxytryptophan-induced head twitch test,[8],failed to demonstrate any inhibitory or other actions
same,Depressor effects of histamine,[9],blocked
same,Diarrhoea caused by L-5-hydroxytryptophan,[10],inhibited
same,Penetration into the central nervous system,[11]; concluded from four CNS test situations,does not penetrate into the central nervous system
same,minimal effective dose,"[12]; Felis catus, intravenous, read-out: Intravenous dose causing long-lasting rises in arterial blood pressure and heart rate",≥ 0.1 mg/kg
same,Pressor responses of the indirectly acting sympathomimetic agent tyramine,[12]; [23],blockade
same,Pressor responses to noradrenaline and sympathetic nerve stimulation,[12]; [23],potentiation
same,Contractions of rat isolated stomach strip caused by 5-hydroxytryptamine,[13]; low concentrations,inhibit
same,Nature of the antagonism to 5-hydroxytryptamine,"[13]; rat isolated stomach strip, relatively resistant to washing",persistent and non-competitive
same,minimal effective dose,[14],≥ 0.03 mg/kg
same,Action in spinal flexor reflex test,[15],failed to demonstrate any inhibitory or other actions
same,minimal effective dose,"[16]; Rattus norvegicus, rats, read-out: Intravenous dose causing long-lasting rises in arterial blood pressure and heart rate",≥ 0.1 mg/kg
same,Pressor responses of the indirectly acting sympathomimetic agent tyramine,[16]; [22],blockade
same,Pressor responses to noradrenaline and sympathetic nerve stimulation,[16]; [22],potentiation
same,minimal effective concentration,[17],0.01 µM
same,Effect on Histamine,[17],++
same,Nature of the antagonism to histamine,"[17]; guinea-pig isolated ileum, relatively resistant to washing",persistent and non-competitive
same,Contractions of the guinea-pig isolated ileum caused by histamine,[17]; low concentrations,inhibit
"c1ccc2c(c1)Cc1ccccc1N1CCN(C3=NCCN3)CC21 (centres unmarked) [Example 3, 2-(2-Imidazolino)-1,2,3,4,10,14b-hexahydrodibenzo [c,f]pyrazino[1,2-a]azepine p-toluenesulphonate]",Effect on Carbachol,[2],- (no effect)
same,Effects of histamine (depressor) in cats,[3],reduced
same,minimal effective concentration,isolated rat uterus,≥ 1 µg/mL
same,minimal effective dose,"[5]; rat, intravenous, read-out: Intravenous dose depressing/reducing the pressor responses to 5-hydroxytryptamine",≥ 0.1 mg/kg
same,Effects of the ganglion stimulant McNeil -A-343,[18],reduced
same,Effect on KCl,[19],- (no effect)
same,minimal effective dose,[14],0.01 mg/kg
same,minimal effective dose,"[16]; rat, read-out: Intravenous dose causing rises in arterial blood pressure",≥ 0.1 mg/kg
same,minimal effective concentration,[17],0.01 µM
same,Effect on Histamine,[17],++
"NC(=O)N1CCN2c3ccccc3Cc3ccccc3C2C1 (centres unmarked) [Example 5, 2-Carboxamido-1,2,3,4,10,14b-hexahydrodibenzo [c,f]pyrazino[1,2-a]azepine]",Morphine-induced catalepsy,[1]; 20 mg/kg by mouth,attenuated
same,Morphine-induced catalepsy,[1]; 10 and 20 mg/kg intraperitoneally,attenuated
same,Effect on Carbachol,[2],- (no effect)
same,Facilitation of spinal reflex activity caused by p-chloroamphetamine,[20]; 1 mg/kg intraperitoneally,attenuated
same,Facilitation of spinal reflexes induced by fenfluramine,"[20]; 1 mg/kg intraperitoneally, spinal and decerebrate rats",attenuated
same,Facilitation of spinal reflexes caused by clonidine,[20]; at these dose levels (1 mg/kg intraperitoneally),did not antagonise
same,Effect on KCl,[19],- (no effect)
same,minimal effective dose,[14],0.03 mg/kg
same,minimal effective concentration,[17],0.01 to 0.1 µM
same,Effect on Histamine,[17],++
"CCNC(=NC#N)N1CCN2c3ccccc3Cc3ccccc3C2C1 (centres unmarked) [Example 7, 2-(N-Cyano-N'-ethyl-carboxamidino)-1,2,3,4,10,14b-hexahydrodibenzo[c,f]pyrazino[1,2-a]azepine]",Effect on Carbachol,[2],- (no effect)
same,Effect on KCl,[19],- (no effect)
same,minimal effective concentration,[17],0.01 to 0.1 µM
same,Effect on Histamine,[17],++
"N=C(NCCOc1ccccc1)N1CCN2c3ccccc3Cc3ccccc3C2C1 (centres unmarked) [Example 9, 2-(N-2-Phenoxyethylcarboxamidino)-1,2,3,4,10,14b-hexahydrodibenzo[c,f]pyrazino[1,2-a]azepine hydrochloride]",Effect on Carbachol,[2],- (no effect)
same,Effect on KCl,[19],- (no effect)
same,minimal effective concentration,[17],0.01 to 0.1 µM
same,Effect on Histamine,[17],++
"CCNC(=O)N1CCN2c3ccccc3Cc3ccccc3C2C1 (centres unmarked) [Example 10, 2-(N-Ethylcarboxamido)-1,2,3,4,10,14b-hexahydrodibenzo[c,f]pyrazino[1,2-a]azepine]",Effect on Carbachol,[2],- (no effect)
same,Effect on KCl,[19],- (no effect)
same,minimal effective concentration,[17],0.1 µM
same,Effect on Histamine,[17],+ (block)
"CCNC(=N)N1CCN2c3ccccc3Cc3ccccc3C2C1 (centres unmarked) [Example 11, 2-(N-Ethylcarboxamidino)-1,2,3,4,10,14b-hexahydrodibenzo[c,f]pyrazino[1,2-a]azepine hydrochloride]",Effect on Carbachol,[2],- (no effect)
same,Block of effect on heart rate of both histamine and 5-hydroxytryptamine,[21],not
same,Effect on blood pressure of both histamine and 5-hydroxytryptamine,[21],complete block
same,Effect on KCl,[19],- (no effect)
same,minimal effective concentration,[17],0.01 to 0.1 µM
same,Effect on Histamine,[17],++
"CCNC(=S)N1CCN2c3ccccc3Cc3ccccc3C2C1 (centres unmarked) [Example 12, 2-(N-Ethylthiocarboxamido)-1,2,3,4,10,14b-hexahydrodibenzo[c,f]pyrazino[1,2-a]azepine]",Effect on Carbachol,[2],- (no effect)
same,Effect on KCl,[19],- (no effect)
same,minimal effective concentration,[17],0.01 to 0.1 µM
same,Effect on Histamine,[17],++
"NC(=O)CN1CCN2c3ccccc3Cc3ccccc3C2C1 (centres unmarked) [Example 13, 2-(Carboxamidomethyl)-1,2,3,4,10,14b-hexahydrodibenzo [c,f]pyrazino[1,2-a]azepine hydrochloride]",Effect on Carbachol,[2],- (no effect)
same,Effect on KCl,[19],- (no effect)
same,Ability to penetrate into the CNS,[11],able to penetrate into the CNS
same,minimal effective concentration,[17],0.01 to 0.1 µM
same,Effect on Histamine,[17],++
"NC(=O)CCN1CCN2c3ccccc3Cc3ccccc3C2C1 (centres unmarked) [Example 14, 2-(2-Carboxamidoethyl)-1,2,3,4,10,14b-hexahydrodibenzo[c,f]pyrazino[1,2-a]azepine]",Effect on Carbachol,[2],- (no effect)
same,Effect on KCl,[19],- (no effect)
same,Ability to penetrate into the CNS,[11],able to penetrate into the CNS
same,minimal effective concentration,[17],0.01 to 0.1 µM
same,Effect on Histamine,[17],++
"CN1CCN2c3ccccc3Cc3ccccc3C2C1 (centres unmarked) [mianserin, 1,2,3,4,10,14b-hexahydro-2-methyldibenzo [c,f]pyrazino[1,2-a]azepine, reference compound]",Action in morphine induced catalepsy test,[1],effective
same,Action in L-5-hydroxytryptophan-induced head twitch test,[8],effective
same,Action in spinal flexor reflex test,[15],effective
